Consider five molecules from patent US9220760B2, “Method of modulating the proliferation of medullary thyroid carcinoma cells” (The Administrators of the Tulane Educational Fund, priority 2001, dated 2015).

In data set [1] the test system is human MTC cell line TT. The experiment in a line: TT cell viability by Trypan Blue staining. The data set is classed as cell-based. As for the experimental part:
(§1) After incubation, the cells were washed three times with ice-cold PBS and twice with 10% ice-cold trichloroacetic acid (TCA). TCA-precipitated material was solubilized in 500 μL 0.2 mol/L sodium hydroxide and 0.1% SDS. Cell-associated radioactivity was then counted in a scintillation spectrometer. Results (counts per min per well) were obtained by determining the mean value of at least six experiments in quadruplicate. The viability of TT cells in control and treated cultures was evaluated by Trypan blue staining both after 24 and 48 hours, and the number of viable cells was always 85-95%.

For the next data set, the target named is T1, human SSTR2 (Homo sapiens, UniProt P30874).
T1 construct: expressed in transfected cells
The experiment in a line: SSTR2 mediated intracellular calcium mobilization in CHO-K1 cells. The data set is classed as cell-based. To be noted: 10^-7-10^-6 M, FIG. 1.

In data set [2] the test system is human MTC cell line TT. The experiment in a line: [3H]thymidine incorporation (DNA synthesis) in TT cells. The data set is classed as cell-based. As to conditions: for Change of [3H]thy incorporation: p<0.05. How it is done:
Cells were incubated in 24-well plates for 48 hours in a culture medium supplemented with SS analogues at various concentrations (10^−9, 10^−8, 10^−7, and 10^−6 M). Control wells were treated with vehicle solution and [^3H]thy incorporation was measured as radioactivity in TCA-precipitated material. Data from six individual experiments evaluated independently in quadruplicate are expressed as the mean±SEM percent [^3H]thy incorporation inhibition versus untreated control cells *P<0.05 and **P<0.01 vs. control.
Control wells were treated with vehicle solution. [^3H]thy incorporation was measured as radioactivity in TCA-precipitated material. Data from six individual experiments were evaluated independently with four replicates expressed as the mean±SEM percent [^3H]thy incorporation inhibition versus untreated control cells *P<0.05 and **P<0.01 vs. control.
The effects of SSTR selective agonists and antagonists on TT cell DNA synthesis were assessed by determining the rate of [^3H]thymidine ([^3H]thy) incorporation, as previously described (Davis L, et al., 1994 In: Basic methods in Molecular Biology, 2nd edition, Appleton & Lange, Norwalk, Conn., USA: 611-646, degli Uberti E C, et al., 1991 J Clin Endocrinol Metab 72: 1364-1371). TT cells were plated in 24-multiwell plates (10^5 cells/well) and incubated for 48 hours in a medium supplemented with 10% FBS in the presence of [^3H]thy (1.5 μCi/mL; 87 Ci/mmol) with or without each SS analogue at concentrations ranging from 10^−6 to 10^−9 M. Treatments were renewed by adding fresh analogues to the wells after the first 24 h of incubation, without removing the medium.
as §1
(In general: Dividing cells build labelled thymidine or BrdU into new DNA.)

The target of a further data set is human SSTR1 (Homo sapiens, UniProt P30872). The experiment in a line: Radioligand membrane receptor binding assay, SSTR1. To be noted: CHO-K1 membranes, [125I-Tyr11]SS-14; read-out: Human somatostatin receptor subtype specificity, Ki, receptor subtype 1.
The test system of data set [3] is human MTC cell line TT. The experiment in a line: TT cell proliferation ([…] 96 MTS assay, viable cell number). The data set is classed as cell-based. As for the experimental part: Cells were incubated in 96-well plates for 48 hours in a culture medium supplemented with SS analogues at various concentrations (10^−9, 10^−8, 10^−7, and 10^−6 M). Control wells were treated with vehicle solution. TT cell proliferation was measured as absorbance at […] of each well. Data from six individual experiments were evaluated independently with eight replicates expressed as the mean±SEM percent cell proliferation inhibition versus untreated control cells *P<0.05 and **P<0.01 vs. control.
Control wells were treated with vehicle solution. TT cell proliferation was measured as absorbance at […] of each well. Data from six individual experiments were evaluated independently with eight replicates expressed as the mean±SEM percent cell proliferation inhibition versus untreated control cells *P<0.05 and **P<0.01 vs. control.
Control wells were treated with vehicle solution and TT cell proliferation was measured as absorbance at […] of each well. Data from six individual experiments were evaluated independently with eight replicates expressed as the mean±SEM percent cell proliferation inhibition versus untreated control cells *P<0.05 and **P<0.01 vs. control.
The effects of SSTR selective agonists and antagonists on TT cell proliferation were assessed by the […] […] The absorbance at 490 nm was then recorded using an ELISA plate reader (EASIA Reader, Medgenix, Camarillo, Calif.). […]
For orientation: Tetrazolium dyes change colour on reduction, which living cells bring about.

Like-named read-outs stand apart in the source and are kept apart here. Where a SMILES comes first, the peptide text is derived from it. [ ]: non-standard residue; d: D form. Tic = O=C(O)[C@@H]1Cc2ccccc2CN1; Abu = CC[C@H](N)C(=O)O

Chain of human SSTR1 (P30872 whole entry): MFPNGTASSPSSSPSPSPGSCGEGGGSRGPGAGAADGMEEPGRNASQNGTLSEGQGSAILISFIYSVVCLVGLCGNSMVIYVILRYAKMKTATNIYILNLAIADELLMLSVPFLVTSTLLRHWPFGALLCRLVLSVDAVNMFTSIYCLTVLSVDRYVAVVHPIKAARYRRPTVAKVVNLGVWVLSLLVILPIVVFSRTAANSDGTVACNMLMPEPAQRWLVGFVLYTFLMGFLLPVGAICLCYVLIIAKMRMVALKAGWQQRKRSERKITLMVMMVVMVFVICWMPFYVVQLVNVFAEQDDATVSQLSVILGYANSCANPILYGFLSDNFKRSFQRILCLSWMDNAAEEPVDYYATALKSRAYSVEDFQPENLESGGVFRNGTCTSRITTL
T1 sequence (P30874 whole entry): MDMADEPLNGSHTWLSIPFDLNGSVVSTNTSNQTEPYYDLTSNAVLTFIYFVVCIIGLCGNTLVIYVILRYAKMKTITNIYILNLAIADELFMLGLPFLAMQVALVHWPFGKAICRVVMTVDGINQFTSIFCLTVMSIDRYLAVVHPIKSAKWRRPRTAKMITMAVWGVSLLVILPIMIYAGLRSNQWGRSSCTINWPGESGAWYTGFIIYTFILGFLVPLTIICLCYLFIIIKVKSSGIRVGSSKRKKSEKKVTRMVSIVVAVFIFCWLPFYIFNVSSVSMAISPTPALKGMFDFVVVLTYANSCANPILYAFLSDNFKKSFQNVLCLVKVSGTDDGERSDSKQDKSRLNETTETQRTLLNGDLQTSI
Method for human SSTR1: Specificity and selectivity of the analogues were determined by Radioligand Binding Assay on CHO-K1 cells stably transfected with each of the SSTR subtypes, as follows.
Membranes for in vitro receptor binding assays were obtained by homogenizing the CHO-K1 cells expressing the SSTR's subtypes in ice-cold 50 mM Tris-HCl and centrifuging twice at 39000 g (10 min), with an intermediate resuspension in fresh buffer. The final pellets were resuspended in 10 mM Tris-HCl for assay. […] The final assay volume was 0.3 ml. […] The incubations were terminated by rapid filtration through GF/C filters (pre-soaked in 0.3% polyethylenimine) using a Brandel filtration manifold. Each tube and filter were then washed three times with 5 ml aliquots of ice-cold buffer.
Subtype affinity was determined by radioligand membrane receptor binding assays in Chinese hamster ovary cells expressing human SSR2 gene or SSR5 cDNA
Method for human SSTR2: Biological activity of SSTR selective agonists and antagonists was evaluated by the calcium mobilization assay in CHO-K1 cells expressing the human SSTR2 or SSTR5. The cells were harvested by incubating in a 0.3% EDTA/phosphate buffered saline solution (25° C.), and washed twice by centrifugation. The washed cells were resuspended in Hank's—buffered saline solution (HBSS) for loading of the fluorescent Ca^2+ indicator Fura-2AM. Cell suspensions (approximately 10^6 cells/ml) were incubated with 2 mM Fura-2AM for 30 min at 25° C. Unloaded Fura-2AM was removed by centrifugation twice in HBBS, and the final suspensions were transferred to a spectrofluorometer (Hitachi F-2000) equipped with a magnetic stirring mechanism and a temperature-regulated cuvette holder. After equilibration to 37° C., the SS analogues were added for measurement of intracellular Ca^2+ mobilization.

`CC(C)[C@@H]1NC(=O)[C@H](CCCCN)NC(=O)[C@@H](Cc2c[nH]c3ccccc23)NC(=O)[C@H](Cc2ccc(O)cc2)NC(=O)[C@@H](NC(=O)[C@H](N)Cc2ccc3ccccc3c2)CSSC[C@@H](C(=O)N[C@H](C(N)=O)[C@@H](C)O)NC1=O` [Compound 1, D-Nal-cyclo[Cys-Tyr-D-Trp-Lys-Val-Cys]-Thr-NH2]: the “Cytotoxic action by Trypan Blue staining” value in the data set on human MTC cell line TT [1] (10^-7 M) is listed as “not associated with any cytotoxic action”.
Take `CC[C@@H]1NC(=O)[C@H](CCCCN)NC(=O)[C@@H](Cc2c[nH]c3ccccc23)NC(=O)[C@H](Cc2ccc(O)cc2)NC(=O)[C@@H]2Cc3ccccc3CN2C(=O)[C@H](Cc2ccccc2)NC1=O` [Compound 2, cyclo[Tic-Tyr-D-Trp-Lys-Abu-Phe]] (cyclo([Tic]Y[dW]K[Abu]F)): the “Intracellular Ca2+ mobilization (ratio stimulated/basal) in SSTR2 expressing cells” value on human SSTR2 is “stimulated significant intracellular Ca^2+ mobilization”. Also, in the data set on human MTC cell line TT [1], the “Cytotoxic action by Trypan Blue staining” value is recorded as “not associated with any cytotoxic action”.
Broadly, the Ki is the dissociation constant of the complex between target and ligand, obtained from inhibition or displacement. As for `CC[C@@H]1NC(=O)[C@H](CCCCN)NC(=O)[C@@H](Cc2c[nH]c3ccccc23)NC(=O)[C@H](Cc2ccc(O)cc2)NC(=O)[C@@H](NC(=O)[C@@H](Cc2ccccc2)NC(=O)CN2CCN(CCO)CC2)CSSC[C@@H](C(=O)N[C@H](C(N)=O)[C@@H](C)O)NC1=O` [Compound 3, 4-(2-Hydroxyethyl)-1-piperazinylacetyl-D-Phe-cyclo(Cys-Tyr-D-Trp-Lys-Abu-Cys)-Thr-NH2], the “Significant reduction of [3H]thy incorporation” value with human MTC cell line TT [2] (10^-8 M and 10^-7 M) is reported as “not”; with human MTC cell line TT [2] (10^-9 M), “significantly (p<0.05) reduced”. The “Change of [3H]thy incorporation” value with human MTC cell line TT [2] (10^-9 M, 48 h) is −17%. Moreover, at human SSTR1, the Ki was 5.21 µM.
As to `CC[C@@H]1NC(=O)[C@H](CCCCN)NC(=O)[C@@H](Cc2c[nH]c3ccccc23)NC(=O)[C@H](Cc2ccc(O)cc2)NC(=O)[C@@H](NC(=O)[C@@H](Cc2ccccc2)NS(=O)(=O)CCN2CCN(CCO)CC2)CSSC[C@@H](C(=O)N[C@H](C(N)=O)[C@@H](C)O)NC1=O` [Compound 4, 4-(2-Hydroxyethyl)-1-piperazine-2-ethanesulfonyl-D-Phe-cyclo(Cys-Tyr-D-Trp-Lys-Abu-Cys)-Thr-NH2], the “Significant reduction of [3H]thy incorporation” value in the data set on human MTC cell line TT [2] (10^-8 M and 10^-7 M) is given as “not”; in the data set on human MTC cell line TT [2] (10^-9 M), “significantly (p<0.05) reduced”. Moreover, in the data set on human MTC cell line TT [2] (10^-9 M, 48 h), the “Change of [3H]thy incorporation” value was −13%.
For the molecule `C[C@@H](O)[C@H](NC(=O)[C@H](Cc1ccccc1)NC(=O)[C@@H](NC(=O)[C@H](CCCCN)NC(=O)[C@@H](Cc1c[nH]c2ccccc12)NC(=O)[C@H](Cc1c[nH]c2ccccc12)NC(=O)[C@H](Cc1ccccc1)NC(=O)[C@H](N)Cc1ccccc1)[C@@H](C)O)C(N)=O` [Compound 5, D-Phe-Phe-Trp-D-Trp-Lys-Thr-Phe-Thr-NH2], in the data set with human MTC cell line TT [3] (10^-8 M, not statistically different from control), the “Increase of TT cell proliferation” value is “up to 11%”. In addition, the “Effect on suppression of TT cell proliferation produced by Compound 2” value with human MTC cell line TT [3] (10^-9 M to 10^-6 M with Compound 2 10^-7 M, FIG. 8 lower panel) was “dose-dependently prevented”. In addition, the “Effect on suppression of TT cell [3H]thy incorporation produced by Compound 2” value in the data set with human MTC cell line TT [2] (10^-9 M to 10^-6 M with Compound 2 10^-7 M, FIG. 8 upper panel) was “dose-dependently prevented”. In addition, in the data set on human MTC cell line TT [2] (10^-9 to 10^-6 M, 48 h), the “Increase of [3H]thy incorporation” value was 80-175%.
